The values that follow come from paper PMC4019466, “RNA Mimicry by the Fap7 Adenylate Kinase in Ribosome Biogenesis” (PLoS Biology, 2014).

Usually Km stands for the substrate concentration at which the rate is half of its maximum. What is called kcat is the number of substrate molecules converted per active site and unit of time at saturation. The term Kd denotes the constant that tells how readily two partners part at equilibrium.

Data set [1] has as its target T1, yFap7 (Saccharomyces cerevisiae, UniProt Q12055).
T1 construct: gene FAP7; full-length, His-tagged, pRSF-DUET, expressed in E. coli Rosetta 2DE3; calculated monomer mass 23,916 (SAXS sample)
T1 sequence (Q12055 1-197): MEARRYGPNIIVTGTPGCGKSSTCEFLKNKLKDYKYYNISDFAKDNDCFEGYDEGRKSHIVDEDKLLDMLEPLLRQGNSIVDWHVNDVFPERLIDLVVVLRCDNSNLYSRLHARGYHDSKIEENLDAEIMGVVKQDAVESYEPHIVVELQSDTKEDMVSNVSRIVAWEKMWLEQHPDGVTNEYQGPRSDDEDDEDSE
Put plainly: native gel electrophoresis with radiolabelled ATP. Type of data set: binding. The conditions noted are these: 30 µM yFap7, 0.1 mM [γ-32P]ATP, AMP-PNP 0.1 or 1 mM.

The target in data set [2] is T1, yFap7. Put plainly: adenylate kinase assay coupled to pyruvate kinase / lactate dehydrogenase, NADH at […] nm. Type of data set: biochemical. The conditions noted are these: 5 mM MgCl2, pH 7.5, 30 °C; co-substrate ATP.
In data set [3] the target is T2, aFap7–aRps14 complex (Pyrococcus abyssi, UniProt Q9UZK4).
T2 construct: gene PYRAB11420; co-expressed from polycistronic pET21, N-terminal 6xHis on Fap7, E. coli Rosetta 2DE3; 1:1 complex, calculated mass 36,272; with Small ribosomal subunit protein uS11 (30S ribosomal protein S11)
Put plainly: X-ray crystal structure, […] Å. The conditions noted are these: Mg2+; ATP binding pocket of aFap7; pH 8.5, 18 °C; two of four aFap7 copies hold ATP, two ADP.

For another data set, the target named is T3, yFap7–yRps14 complex (Saccharomyces cerevisiae, UniProt Q12055).
T3 construct: gene FAP7; co-expressed from polycistronic pET21, N-terminal 6xHis on Fap7, E. coli Rosetta 2DE3; 1:1 complex, calculated mass 38,447; with Small ribosomal subunit protein uS11 (40S ribosomal protein S14)
In words: adenylate kinase assay coupled to pyruvate kinase / lactate dehydrogenase, NADH at […] nm. It is filed as biochemical. The conditions noted are these: 0.3 mM AMP, 5 mM MgCl2, pH 7.5, 30 °C; preformed complex.

For data set [4], the target named is T2, aFap7–aRps14 complex. Put plainly: X-ray crystal structure, […] Å. The conditions noted are these: Mg2+; ATP binding pocket of aFap7; pH 8.5, 18 °C.
Substrate in the data set “purified protein”: Nc1ncnc2c1ncn2[C@@H]1O[C@H](COP(=O)(O)OP(=O)(O)OP(=O)(O)O)[C@@H](O)[C@H]1O
Put plainly: purified protein. It is filed as biochemical, Saccharomyces cerevisiae. The conditions noted are these: 0.3 mM AMP, 5 mM MgCl2, 60 mM KCl, 100 mM Tris-HCl pH 7.5, 30 °C, ATP 0.01–1 mM.

For data set [5], the target named is T4, MBP-yRps14 (Saccharomyces cerevisiae, UniProt P06367 1-137). In words: filter binding; 6 mM Mg2+, 150 mM KCl, E. coli tRNA 60 ug/ml; Filter binding: 30 mM Tris-HCl pH 8.0, 150 mM KCl, 6 mM MgCl2, 60 ug/ml E. coli tRNA, 20 C, 15 min, 10 fmol RNA (Fig S4D: 20 mM HEPES pH 8.0, 300 mM KCl, 5 mM MgCl2, 20 C); pull-down: IP buffer (300 mM KCl, 50 mM Hepes pH 7.5, 0.5 mM EDTA, 1 mM DTT, 10% glycerol as given for bead preparation), 5 mM MgCl2 where stated. The conditions noted are these: protein: recombinant; tags: MBP (pETM41; His-tag purification); (radioactively labeled); hairpin.

In data set [6] the target is T5, yFap7 (Saccharomyces cerevisiae, UniProt Q12055 1-197).
T5 sequence: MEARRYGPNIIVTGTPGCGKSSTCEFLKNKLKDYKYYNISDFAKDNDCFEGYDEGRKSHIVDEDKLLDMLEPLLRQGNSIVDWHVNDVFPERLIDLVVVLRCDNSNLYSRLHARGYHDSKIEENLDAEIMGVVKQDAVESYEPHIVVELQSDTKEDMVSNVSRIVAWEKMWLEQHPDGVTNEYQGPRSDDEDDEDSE
Put plainly: filter binding; up to 3.6 uM protein; 6 mM Mg2+, 150 mM KCl; Filter binding: 30 mM Tris-HCl pH 8.0, 150 mM KCl, 6 mM MgCl2, 60 ug/ml E. coli tRNA, 20 C, 15 min, 10 fmol RNA (Fig S4D: 20 mM HEPES pH 8.0, 300 mM KCl, 5 mM MgCl2, 20 C); pull-down: IP buffer (300 mM KCl, 50 mM Hepes pH 7.5, 0.5 mM EDTA, 1 mM DTT, 10% glycerol as given for bead preparation), 5 mM MgCl2 where stated. The conditions noted are these: protein: recombinant; tags: His; (radioactively labeled); hairpin.

Data set [7] addresses T4, MBP-yRps14. In words: filter binding; 300 mM KCl, 5 mM Mg2+, HEPES pH 8.0; Filter binding: 30 mM Tris-HCl pH 8.0, 150 mM KCl, 6 mM MgCl2, 60 ug/ml E. coli tRNA, 20 C, 15 min, 10 fmol RNA (Fig S4D: 20 mM HEPES pH 8.0, 300 mM KCl, 5 mM MgCl2, 20 C); pull-down: IP buffer (300 mM KCl, 50 mM Hepes pH 7.5, 0.5 mM EDTA, 1 mM DTT, 10% glycerol as given for bead preparation), 5 mM MgCl2 where stated. The conditions noted are these: protein: recombinant; tags: MBP (pETM41; His-tag purification); (radioactively labeled); hairpin.

Regarding `Nc1ncnc2c1ncn2[C@@H]1O[C@H](COP(=O)(O)OP(=O)(O)NP(=O)(O)O)[C@@H](O)[C@H]1O` [AMPPNP], the “native gel electrophoresis with radiolabelled ATP” value at yFap7 [1] was “Fap7 binds AMPPNP and ATP−Mg with the same (AMPPNP) or a slightly lower”.

Regarding `Nc1ncnc2c1ncn2[C@@H]1O[C@H](COP(=O)(O)O)[C@@H](O)[C@H]1O` [AMP], at yFap7 [2], the “adenylate kinase assay coupled to pyruvate kinase / lactate dehydrogenase, NADH” value is listed as “the AK activity of yFap7 with respect to AMP”. `Nc1ncnc2c1ncn2[C@@H]1O[C@H](COP(=O)(O)OP(=O)(O)OP(=O)(O)O)[C@@H](O)[C@H]1O` [ATP]: on aFap7–aRps14 complex [3], the “X-ray crystal structure, 2.45 Å” value is “In the ATP-bound crystal form, two copies of aFap7 are bound by ATP”. Also, on yFap7–yRps14 complex, the “adenylate kinase assay coupled to pyruvate kinase / lactate dehydrogenase, NADH” value was “yFap7–yRps14 complex showed almost complete inhibition of the Fap7 AK activity”. `Nc1ncnc2c1ncn2[C@@H]1O[C@H](COP(=O)(O)OP(=O)(O)O)[C@@H](O)[C@H]1O` [ADP]: the “X-ray crystal structure, 2.12 Å” value at aFap7–aRps14 complex [4] was 4cwn and 4cw7 for the ADP- and ATP-bound structures.

B1: yFap7 (Saccharomyces cerevisiae S288C) (protein)
chain: MEARRYGPNIIVTGTPGCGKSSTCEFLKNKLKDYKYYNISDFAKDNDCFEGYDEGRKSHIVDEDKLLDMLEPLLRQGNSIVDWHVNDVFPERLIDLVVVLRCDNSNLYSRLHARGYHDSKIEENLDAEIMGVVKQDAVESYEPHIVVELQSDTKEDMVSNVSRIVAWEKMWLEQHPDGVTNEYQGPRSDDEDDEDSE
notes: full-length, His-tagged, pRSF-DUET, expressed in E. coli Rosetta 2DE3; calculated monomer mass 23,916 (SAXS sample)
B1: in “purified protein”, the Km is 52 µM and the kcat was determined as 0.00612 s⁻¹.

B2: Helix 23 of 18S rRNA (H23) (structured_RNA)
RNA: GGGAGUAUUCAAUUGUCAGAGGUGAAAUUCUUGGAUUUAUUGAAGAGU
In the case of B2, the Kd was found to be 1.5 ± 0.15 µM with MBP-yRps14 [5] and 34.9 ± 0.95 µM with MBP-yRps14 [7]. Moreover, in the data set with yFap7 [6], the binding result is recorded as “no binding”.
